≈ marks a conversion by molar mass, not a printed value. Values belong to the compound of their own block, whether it stands above or below them.
Tests used:
Galactokinase = Galactokinase (Homo sapiens, UniProt P51570); experiment: Inhibition of recombinant human GALK1 using galactose as substrate incubated for 1 hrs in the presence of ATP by Kinase-Glo reagent based luminescence assay
[1] = Permeability of the compound at pH 7.4 measured after 30 mins by PAMPA based LC/MS analysis; format: ADME; details: PAMPA, pH 7.4, read-out: permeability
physchem = details: phosphate buffer, pH 7.4
Description: Kinetic solubility of the compound in phosphate buffer at pH 7.4 at 150 uM incubated for 6 hrs by shake-flask method

[2] = Metabolic stability in human liver microsomes assessed as half life; format: ADME, Microsome
[3] = Metabolic stability in mouse liver microsome assessed as half life; format: ADME; details: microsomes

Chain of Galactokinase (P51570 whole entry): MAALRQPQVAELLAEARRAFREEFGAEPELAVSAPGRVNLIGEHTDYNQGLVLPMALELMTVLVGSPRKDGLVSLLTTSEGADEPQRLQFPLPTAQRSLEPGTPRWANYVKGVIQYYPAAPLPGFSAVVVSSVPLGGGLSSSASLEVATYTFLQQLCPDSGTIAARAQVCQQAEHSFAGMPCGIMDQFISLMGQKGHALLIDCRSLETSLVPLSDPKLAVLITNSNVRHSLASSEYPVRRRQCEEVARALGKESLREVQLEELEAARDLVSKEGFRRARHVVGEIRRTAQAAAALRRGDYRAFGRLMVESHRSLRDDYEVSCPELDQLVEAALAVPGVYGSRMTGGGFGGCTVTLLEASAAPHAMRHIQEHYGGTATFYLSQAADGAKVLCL

SMILES: CCn1cc(CNC(=O)C2=C(C)NC(Nc3nc4ccc(F)c(N)c4o3)=N[C@H]2c2ccc(C)cc2Cl)cn1
- Papp at 0.5 h [1]: 773 ×10⁻⁶ cm/s
- solubility kinetic at 6 h, 150 µM (physchem): < 1 µg/mL
- t1/2 [2]: 12 min
- t1/2 [3]: 7 min
- IC50 (Galactokinase; read-out: IC50): 0.068 µM

SMILES: CCn1cc(CNC(=O)C2=C(C)NC(Nc3nc4ccc(F)c(N)c4o3)=NC2c2ccc(C)cc2Cl)cn1 (racemic)
- Papp at 0.5 h [1]: 410 ×10⁻⁶ cm/s
- solubility kinetic at 6 h, 150 µM (physchem): < 1 µg/mL
- t1/2 [2]: 8 min
- t1/2 [3]: 14 min
- IC50 (Galactokinase; read-out: IC50): 0.048 µM

SMILES: CCn1cc(CNC(=O)C2=C(C)NC(Nc3nc4ccc(F)c(N)c4o3)=N[C@@H]2c2ccc(C)cc2Cl)cn1
- Papp at 0.5 h [1]: 407 ×10⁻⁶ cm/s
- solubility kinetic at 6 h, 150 µM (physchem): 2.1 µg/mL (≈ 3.91 µM)
- t1/2 [2]: 10 min
- t1/2 [3]: 12 min
- IC50 (Galactokinase; read-out: pIC50 (converted)): 1.48 µM

SMILES: CC1=C(C(=O)NCc2cnn(C)c2)[C@H](c2ccc(C)cc2Cl)N=C(Nc2nc3cccc(N)c3o2)N1
- Papp at 0.5 h [1]: 661 ×10⁻⁶ cm/s
- solubility kinetic at 6 h, 150 µM (physchem): 17 µg/mL (≈ 33.7 µM)
- t1/2 [2]: 37 min
- t1/2 [3]: 7 min
- IC50 (Galactokinase; read-out: pIC50 (converted)): 0.12 µM

SMILES: CC1=C(C(=O)Nc2cccc(CO)c2)C(c2ccccc2Cl)N=C(Nc2nc3ccccc3o2)N1 (centres undefined)
- IC50 (Galactokinase; read-out: pIC50 (converted)): 4.17 µM

SMILES: CCn1cc(CNC(=O)C2=C(C)NC(Nc3nc4cccc(N)c4o3)=NC2c2ccc(C)cc2Cl)cn1 (racemic)
- Papp at 0.5 h [1]: 632 ×10⁻⁶ cm/s
- solubility kinetic at 6 h, 150 µM (physchem): 2.4 µg/mL (≈ 4.62 µM)
- t1/2 [2]: 120 min

SMILES: CC1=C(C(=O)NCc2cccc(CO)c2)C(c2ccccc2Cl)N=C(Nc2nc3ccccc3o2)N1 (centres undefined)
- IC50 (Galactokinase; read-out: pIC50 (converted)): 4.68 µM

SMILES: CC1=C(C(=O)NCc2cn(C)cn2)C(c2ccccc2Cl)N=C(Nc2nc3ccccc3o2)N1 (centres undefined)
- IC50 (Galactokinase; read-out: pIC50 (converted)): 1.05 µM

The next lines start with the values.

- IC50 (Galactokinase; read-out: pIC50 (converted)): 0.447 µM
SMILES: COc1ccc(C2N=C(Nc3nc4ccc(F)cc4o3)NC(C)=C2C(=O)Nc2cc(C(=O)O)ccn2)c(Cl)c1 (centres undefined)

- IC50 (Galactokinase; read-out: pIC50 (converted)): 1.05 µM
SMILES: CC1=C(C(=O)Nc2cc(C(=O)O)ccn2)C(c2ccc(Cl)cc2Cl)N=C(Nc2nc3ccc(F)cc3o2)N1 (centres undefined)

- IC50 (Galactokinase; read-out: pIC50 (converted)): 19.5 µM
SMILES: CC1=C(C(=O)Nc2cc(C(=O)O)ccn2)C(c2ccccc2Cl)N=C(Nc2nc3c(N)cccc3o2)N1 (centres undefined)

- IC50 (Galactokinase; read-out: pIC50 (converted)): 2.63 µM
SMILES: CC1=C(C(=O)Nc2cccc(C(=O)O)c2)C(c2ccccc2Cl)N=C(Nc2nc3ccccc3o2)N1 (centres undefined)

- IC50 (Galactokinase; read-out: IC50): 3.43 µM
- IC50 (Galactokinase; read-out: pIC50 (converted)): 3.72 µM
SMILES: CC1=C(C(=O)Nc2nncs2)C(c2ccccc2Cl)N=C(Nc2nc3ccccc3o2)N1 (centres undefined)

- IC50 (Galactokinase; read-out: pIC50 (converted)): 0.447 µM
SMILES: CC1=C(C(=O)Nc2cc(C(=O)O)ccn2)C(c2ccc(N3CCOCC3)cc2Cl)N=C(Nc2nc3ccc(F)cc3o2)N1 (centres undefined)

- IC50 (Galactokinase; read-out: pIC50 (converted)): 19.5 µM
SMILES: COc1ccc2nc(NC3=NC(c4ccccc4Cl)C(C(=O)Nc4cc(C(=O)O)ccn4)=C(C)N3)oc2c1 (centres undefined)

- IC50 (Galactokinase; read-out: pIC50 (converted)): 6.61 µM
SMILES: COc1ccc2oc(NC3=NC(c4ccccc4Cl)C(C(=O)Nc4cc(C(=O)O)ccn4)=C(C)N3)nc2c1 (centres undefined)

- IC50 (Galactokinase; read-out: pIC50 (converted)): 0.234 µM
SMILES: CC1=C(C(=O)Nc2cc(C(=O)O)ccn2)C(c2ccccc2Cl)N=C(Nc2nc3cccc(N)c3o2)N1 (centres undefined)

- IC50 (Galactokinase; read-out: pIC50 (converted)): 10.5 µM
SMILES: CC1=C(C(=O)Nc2ccccc2)C(c2ccccc2Cl)N=C(Nc2nc3ccccc3o2)N1 (centres undefined)

- IC50 (Galactokinase; read-out: IC50): 4.32 µM
- IC50 (Galactokinase; read-out: pIC50 (converted)): 4.47 µM
SMILES: COC(=O)c1ccc(NC(=O)C2=C(C)NC(Nc3nc4ccccc4o3)=NC2c2ccccc2Cl)cc1 (centres undefined)

From ChEMBL document CHEMBL5096199, “Structure-Based Optimization of Small Molecule Human Galactokinase Inhibitors” (J Med Chem, 2021)
